Results reported in PMC4413647, “Simultaneous targeting of androgen receptor (AR) and MAPK-interacting kinases (MNKs) by novel retinamides inhibits growth of human prostate cancer cell lines” (Oncotarget, 2014).
Where two headings read alike, the source gives them in different places.

Tests used:
[1] = system: Bax, cleaved PARP-1; assay: Western blot of Bax and cleaved PARP-1 in PCa cells; type: cell-based, human; conditions: 20 μM, 24 h, among the lead NRs
Description: Figure 4 Effect of NRs on cell cycle and apoptosis (A) LNCaP cells treated with 5 μM of NRs and other compounds for 24 h were stained with PI and analysed with a FACS calibur flow cytometer. (B) Total cell lysates from PCa cells treated with 20 μM of NRs were separated by SDS-PAGE and probed with cyclin D1 and B antibodies. […] (C) LNCaP cells were treated with indicated compounds (5 μmol/L) for 24 h and apoptosis induction was examined by oligonucleosomal fragmentation. Data are shown relative to vehicle treated control and the bars are means of three replicate determinations plus standard deviations. *, P< 0.01; ♣, P<0.05 compared with vehicle treated control. (D) PCa cells as indicated were seeded in 24 well plate, and treated with 5 μmol/L of NRs the subsequent day. After 24 h the plates were analyzed for apoptotic and viable cells using acridine orange/ethidium bromide staining. (E) Western blot analysis of apoptosis associated Bax and cPARP in PCa cells treated with NRs (20 μmol/L) for 24 h. (F) Apoptosis induction in LNCaP cells treated with 5 μmol/L of VNLG-147 and -152 in the presence or absence of ZVAD (5 μmol/L) was assessed by oligonucleosomal fragmentation after 24 h incubation. *, P< 0.05 compared with vehicle treated control. […]

[2] = system: LNCaP cells; assay: MTT cell proliferation assay, 7 d, LNCaP; type: cell-based, human; conditions: 7 d treatment
Text: (§1) Androgen-dependent (LNCaP), androgen-independent (PC-3) and castration resistant (C4-2B and 22Rv1) human prostate carcinoma cells were procured from American Type Culture Collection, Manassas, VA, USA and maintained in RPMI 1640 media (Gibco-Life Technologies, Grand Island, NY, USA) supplemented with 10% fetal bovine serum and 1% penicillin/streptomycin. […] Immortalized untransformed prostate epithelial cells, PWR1E from American Type Culture Collection were maintained in serum-free Keratinocyte media (Gibco) supplemented with epidermal growth factor and bovine pituitary extract. All cell lines were maintained in a 37 °C/5% CO2 humidified atmosphere.
(§2) Cell proliferation assay was performed as described previously. For cell growth experiment, cells were treated with the NRs for 7 days. MTT assay was performed at the end of the experiment. Calculations of combination indices were done using the Calcusyn program (Biosoft, Cambridge, United Kingdom). For colony formation assay, cells were plated 1000 per well in complete media and allowed to adhere for 24 h. The next day cells were treated with indicated compounds (5 μM). After 24 h compound containing media were removed, and cells were allowed to form colonies in complete media. Approximately 2 weeks later the colonies were fixed, stained with 0.5% crystal violet (sigma) for 30 min and counted manually. Results represent the mean ± standard deviation of three independent experiments.

[3] = system: C4-2B cells; assay: MTT cell proliferation assay, 7 d, C4-2B; type: cell-based; conditions: Homo sapiens, 168 h, 7 d treatment
Text: as §1, §2

[4] = system: PC-3 cells; assay: Wound healing migration assay; type: cell-based, human; conditions: 5 μM, 24 h
Description: Figure 5 Anti-migratory and anti-invasive potential of NRs (A) Effect of NRs treatment (5 μmol/L) on PC-3 cell migration was assessed by wound healing assay after 24 h of wound formation. Representative photomicrographs of initial and final wounds are shown at 100x magnification. (B) Effect of NRs on PC-3 cell invasion was evaluated by transwell migration assay. PC-3 cells were seeded on matrigel coated boyden chamber and treated with NRs (5 μmol/L, 24 h). Photographs represent the extent of cell invasion in each of the treated cells. (C) Western blot analysis of the effect of NRs on the expression of cadherins in PC-3 cells. Cells were treated with indicated compound 20 μmol/L for 24 h. […] For wound healing assay highly metastatic PC-3 cells were plated in a 24 well plate at a seeding density of 5 × 10^5 cells/ well and allowed to form a confluent monolayer for 24 h. Cells were made dormant by pretreating with 0.5 μmol/L mitomycin C for 2 h to ensure that wounds are filled due to cell migration and not by cell proliferation. Subsequently, the monolayer was scratched with a pipette tip, washed with media to remove floating cells, and photographed (time 0 h). Cells were then treated with indicated compounds (5 μM) and the experiment was terminated as soon as wound was completely filled in vehicle treated controls. Cells were then photographed again using Nikon TE2000 microscope at three randomly selected sites per well [43].

[5] = system: PC-3 cells; assay: MTT cell proliferation assay, 7 d, PC-3; type: cell-based; conditions: Homo sapiens, PC-3, 168 h, 7 d treatment
Text: as §1, §2

[6] = system: PCa cells; assay: MTT cell viability in PCa cells (LNCaP, PC-3, C4-2B, 22Rv1); type: cell-based, human; conditions: Homo sapiens, range over PCa cell lines
Description: as §2

GI50 ([2]; read-out: GI50 LNCaP): 2.45 µM
GI50 ([2]; Homo sapiens, LNCaP, 168 h, read-out: GI50 LNCaP): 2.5 µM
GI50 ([2]; Homo sapiens, LNCaP, 168 h, DHT induced, read-out: GI50 LNCaP, DHT induced): 1.86 µM
GI50 [5]: 5.62 µM
GI50 [6]: 1.5 to 5.5 µM
Compound: CC1=C(/C=C/C(C)=C/C=C/C(C)=C/C(=O)Nc2ccc(F)cc2)C(C)(C)CCC1n1ccnc1 (racemic) [VNLG-152]
efficacy in inducing PARP cleavage and/or increasing Bax expression [1]: greater efficacies
GI50 [3]: 1.54 µM
PC-3 cell migration to the denuded zone [4]: potentially suppressed
